Experimental findings from patent US20190375778A1, “ADENOSINE DERIVATIVES FOR USE IN THE TREATMENT OF CANCER” (NuCana plc, priority 2016, published 2019) are described below.

One test concerns NCI-H929. Nature of the test: CellTiterGlo viability assay, NCI-H929. It is filed as cell-based. The following applies: Homo sapiens, read-out: IC50 NCI-H929. The essentials: (§1)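 Luminescent ATP-based readout (CellTiterGlo) followed a 72-hour incubation at 37 °C with compound. Final DMSO was 0.5%, and the dilution series ran from 198 μM to 19.9 nM over nine points.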
A further test concerns CCRFCEM. Kind of test: CellTiterGlo viability assay, CCRFCEM. It is filed as cell-based. The following applies: Homo sapiens, CCRF-CEM, read-out: IC50 CCRFCEM. The gist of the method:
as §1

In another test the test system is HepG2. Nature of the test: CellTiterGlo viability assay, HepG2. It is filed as cell-based. The following applies: Homo sapiens, read-out: IC50 HepG2. As to the method:
(§2) In vitro viability assay were performed to assess the effects of compounds on cell viability in selected cell lines over ˜72 hrs using the CellTiterGlo (CTG, Promega-G7573) assay. The tests were performed in duplicates with treatment of compounds at 9 points, 3.16 folds titration in 96 well plates over ˜72 hrs. The compound starting concentrations were 198 μM. Cell viability assay using CellTiterGlo in 96-well plate were performed. Compound treatment 72 hrs, standard growth conditions, duplicates. Compounds were dissolved to 40 mM with thawed […]. Compounds were serially diluted at 3.16 fold in thawed DMSO, and warmed to 37° C. before being dissolved in media (2 μl+200 μl). After compounds were dissolved in media, media containing compounds were warmed to 37° C. in incubator and then compounds in media were added to cell plates (50 μl+50 μl) in duplicates. The compounds' final concentrations were from […] to 19.9 nM. All compound solubilities were checked and recorded again, then the plates were transferred to CO2 tissue culture incubator immediately and incubated for 3 days. DMSO final concentration is 0.5%.

Another test relates to BxPC-3. Kind of test: CellTiterGlo viability assay, BxPC-3. The following applies: Homo sapiens, read-out: IC50 BxPC-3. It is filed as cell-based. As to the method:
as §2

A further test concerns MOLT-4. Nature of the test: CellTiterGlo viability assay, MOLT-4. It is filed as cell-based. The conditions noted are these: Homo sapiens, read-out: IC50 MOLT-4. The protocol: as §2
Test [1] relates to human cervix carcinoma HeLa cells. Nature of the test: Cell proliferation (Coulter count) assay, HeLa. The following applies: 120 h, cell count on day 5, read-out: absolute IC50, HeLa. Type of test: cell-based. The essentials:
(§3)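 Cells grown in DMEM with 10% FBS. HeLa seeded at 10 000 cells/well, compound added after 24 h, counted day 5; L1210 and CEM seeded at 60 000 cells/well with compound, counted after 48 h and 72 h respectively. IC50 is concentration halving proliferation by Coulter count.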

The next test concerns K562. Kind of test: CellTiterGlo viability assay, K562. Type of test: cell-based. The following applies: Homo sapiens, read-out: IC50 K562. The gist of the method: as §1
A further test has as its system RPMI-8226. Nature of the test: CellTiterGlo viability assay, RPMI-8226. It is filed as cell-based, Human. The conditions noted are these: Homo sapiens, read-out: IC50 RPMI-8226. The essentials: as §1
The subject of another test is human T-lymphocyte CEM. Kind of test: Cell proliferation (Coulter count) assay, CEM. It is filed as cell-based. The following applies: 72 h, read-out: absolute IC50, CEM. The gist of the method: as §3
Another test deals with HL-60. Kind of test: CellTiterGlo viability assay, HL-60. Type of test: cell-based. The conditions noted are these: Homo sapiens, read-out: IC50 HL-60. The essentials: as §1
For a further test, the system named is RL. Kind of test: CellTiterGlo viability assay, RL. Type of test: cell-based. The conditions noted are these: Homo sapiens, RL, read-out: IC50 RL. The essentials: as §1
The test system of another test is HT29. Kind of test: CellTiterGlo viability assay, HT29. Type of test: cell-based. The conditions noted are these: Homo sapiens, read-out: IC50 HT29. The protocol:
as §2

Another test has as its system Z138. Kind of test: CellTiterGlo viability assay, Z138. Type of test: cell-based. The following applies: Homo sapiens, read-out: IC50 Z138. The protocol:
as §2

The next test has as its system SW620. Nature of the test: CellTiterGlo viability assay, SW620. Type of test: cell-based. The conditions noted are these: Homo sapiens, read-out: IC50 SW620. As to the method: as §2
The test system of another test is HS445. Kind of test: CellTiterGlo viability assay, HS445. It is filed as cell-based. The following applies: read-out: IC50 HS445. As to the method:
as §2

In the next test the test system is Jurkat. Nature of the test: CellTiterGlo viability assay, Jurkat. Type of test: cell-based. The conditions noted are these: Homo sapiens, read-out: IC50 Jurkat. As to the method: as §2

Read-outs that look alike come from different tables or passages of the source. Where only a bound is given, the exact number is not on record here.

As for `Nc1ncnc2c1nc(Cl)n2[C@@H]1O[C@H](COP(=O)(NCC(=O)OC2CCCCC2)Oc2ccccc2)[C@@H](O)[C@H]1O` (mixture of isomers) [Compound A, Cyclohexyl 2-(((((2R,3S,4R,5R)-5-(6-amino-8-chloro-9H-purin-9-yl)-3,4-dihydroxy-tetrahydrofuran-2-yl)methoxy)(phenoxy)phosphoryl)amino)acetate], the IC50 with NCI-H929 (NCI-H929, 72 h) was 15 to 100 µM; in the test with CCRFCEM (72 h) it was 5 to 15 µM; with HepG2 (HepG2, 72 h) it was 5 to 15 µM; with BxPC-3 (BXPC-3, 72 h), 15 to 100 µM; in the test on MOLT-4 (MOLT-4, 72 h), 15 to 100 µM; in test [1] it was 15 to 100 µM. Besides, the IC50 with K562 (K562, 72 h) lay in the range of 5 to 15 µM; with RPMI-8226 (RPMI-8226, 72 h), 5 to 15 µM; with human T-lymphocyte CEM it was 15 to 100 µM; with HL-60 (HL-60, 72 h) it was 5 to 15 µM; in the test with RL (72 h), 5 to 15 µM; in the test on HT29 (HT-29, 72 h) it was 15 to 100 µM. Besides, the IC50 in the test on Z138 (Z-138, 72 h) was 0.1 to 5 µM; with SW620 (SW-620, 72 h), 15 to 100 µM; with HS445 (Hs 445, 72 h), above 100 µM; in the test with Jurkat (72 h), 15 to 100 µM.
Regarding `CCCCCOC(=O)[C@H](C)NP(=O)(OC[C@H]1O[C@@H](n2c(Cl)nc3c(N)ncnc32)C(O)C1O)Oc1cccc2ccccc12` (stereo partly drawn) [Compound E, (2S)-Pentyl 2-(((((2R,3S,4R,5R)-5-(6-amino-8-chloro-9H-purin-9-yl)-3,4-dihydroxy-tetrahydrofuran-2-yl)methoxnaphthalene-1-yloxy)phosphoryl)amino)propanoate], the IC50 in the test with NCI-H929 (NCI-H929, 72 h) lay within 0.1 to 5 µM; in the test on CCRFCEM (72 h), 0.1 to 5 µM; in the test with HepG2 (HepG2, 72 h), 0.1 to 5 µM; in the test with BxPC-3 (BXPC-3, 72 h), 5 to 15 µM; in the test on MOLT-4 (MOLT-4, 72 h), 0.1 to 5 µM; in test [1], 0.1 to 5 µM. In addition, the IC50 lay within 0.1 to 5 µM in the test with K562 (K562, 72 h); 0.1 to 5 µM in the test with RPMI-8226 (RPMI-8226, 72 h); 0.1 to 5 µM with human T-lymphocyte CEM; 0.1 to 5 µM in the test with HL-60 (HL-60, 72 h); 5 to 15 µM in the test on RL (72 h); 0.1 to 5 µM in the test on HT29 (HT-29, 72 h). Further, the IC50 in the test on Z138 (Z-138, 72 h) lay within 0.1 to 5 µM; in the test with SW620 (SW-620, 72 h) it was 0.1 to 5 µM; with HS445 (Hs 445, 72 h), 15 to 100 µM; in the test with Jurkat (72 h), 0.1 to 5 µM.
Turning to `Nc1ncnc2c1nc(Cl)n2[C@@H]1O[C@H](COP(=O)(NCC(=O)OCc2ccccc2)NCC(=O)OCc2ccccc2)C(O)C1O` (stereo partly drawn) [Compound AC, 8-Chloroadenosine 5′-O-bis(benzyloxy-glycin-N-yl) phosphate], the IC50 in the test on NCI-H929 (NCI-H929, CellTiterGlo, 72 hrs) is 0.1 to 5 µM; in the test on CCRFCEM (CellTiterGlo, 72 hrs), 0.1 to 5 µM; with HepG2 (HepG2, CellTiterGlo, 72 hrs), 0.1 to 5 µM; in the test with BxPC-3 (BXPC-3, CellTiterGlo, 72 hrs), 5 to 15 µM; with MOLT-4 (MOLT-4, CellTiterGlo, 72 hrs), 0.1 to 5 µM; in test [1] it was 0.1 to 5 µM. The IC50 in the test with K562 (K562, CellTiterGlo, 72 hrs) lay within 0.1 to 5 µM; with RPMI-8226 (RPMI-8226, CellTiterGlo, 72 hrs) it was 0.1 to 5 µM; in the test on human T-lymphocyte CEM, 0.1 to 5 µM; in the test on HL-60 (HL-60, CellTiterGlo, 72 hrs), 0.1 to 5 µM; with RL (CellTiterGlo, 72 hrs), 0.1 to 5 µM; in the test on HT29 (HT-29, CellTiterGlo, 72 hrs), 0.1 to 5 µM. For the same compound, the concentration for half-maximal inhibition (IC50) is 0.1 to 5 µM in the test on Z138 (Z-138, CellTiterGlo, 72 hrs); 0.1 to 5 µM in the test with SW620 (SW-620, CellTiterGlo, 72 hrs); 5 to 15 µM in the test with HS445 (Hs 445, CellTiterGlo, 72 hrs); 0.1 to 5 µM with Jurkat (CellTiterGlo, 72 hrs).
